Data reported in US8124582B2, “Treatment of diabetes” (FibroGen, Inc., priority 2002, dated 2012).

Columns and labels:
[1] = Glycated hemoglobin (HbA1c) in db/db mice; type: in vivo, male db/db mice; conditions: 0.5 mg/ml in drinking water
Protocol: The effect of compound administration on glycated hemoglobin levels was examined using a mouse model of diabetes as follows. Twenty male db/db mice (Harlan) received drinking water containing either vehicle (100 μM histidine) or compound A (0.5 mg/ml) for a period of 8 weeks. Prior to study initiation and at weeks 4 and 8 following treatment, blood samples were collected from the tail vein and HbA1c levels were measured using an HbA1cNOW kit (Metrika Inc., Sunnyvale Calif.).

[2] = Body weight gain, abdominal fat pad and organ weight in diet-induced obesity model; type: in vivo, male C57BL/6J mice; conditions: C57BL/6J mice, 75 mg/kg/day oral gavage, 28 days; for abdominal fat pad weight on high-fat diet: FIG. 9B; for organ weights of kidney, liver, and heart between experimental groups: FIG. 9C; for body weight gain on high-fat diet vs untreated high-fat diet: p<0.05, FIG. 9A
Text: C57B1/6J mice fed a high-fat diet develop severe obesity, hyperglycemia, and hyperinsulinemia, and are a model of diet-induced obesity, Type 2 diabetes, and impaired glucose tolerance. Forty male C57BL/6J mice obtained from The Jackson Laboratory (Bar Harbor Me.) were divided into the following experimental groups: Group 1: vehicle control animals fed standard mouse chow (n=10); Group 2: vehicle control animals fed high-fat mouse chow (45% fat from Research Diets) (n=10); Group 3: animals fed high-fat mouse chow and administered 75 mg/kg/day compound E by oral gavage (n=10); Group 4: animals fed high-fat mouse chow and administered 75 mg/kg/day compound A by oral gavage (n=10). The feeding regimen was continued for 28 days with weekly measurement of body weight. Animals were then sacrificed and their organs and fat pads were harvested and weighed.

[3] = Serum triglyceride levels in db/db mice; type: in vivo, male db/db mice; conditions: 0.5 mg/ml in drinking water, 8 weeks
Text: The effect of compound administration on triglyceride levels was examined using a mouse model of diabetes as follows: Twenty male db/db mice (Harlan, Indianapolis, Ind.), which carry a homozygous loss-of-function mutation in the leptin receptor, were used for this study. Triglycerdide levels are typically elevated 1.5-2 times in db/db mice compared to that in normal mice. (Nishina et al (1994) Metabolism 43:549-553.) Triglyceride levels in db/db mice progressively increase with age. (Tuman and Doisy (1977) Diabetologia 13:7-11.) Mice received drinking water containing either vehicle (100 μM histidine) or compound A (0.5 mg/ml in 100 μM histidine) for a period of 8 weeks. At the termination of the study, animals were fasted overnight and blood samples were taken from the caudal vena cava under general anesthesia and placed in serum separator tubes. Blood samples were sent to Quality Clinical Labs (Mountain View, Calif.) for analysis.

GluT-1 = GluT-1 protein levels in H9c2 cells (Western blot); type: cell-based, rat; conditions: H9c2 cells, 5, 10, and 20 μM, 16 hours; FIG. 1B
Protocol: Human SSC-25 (squamous cell carcinoma) or rat H9c2 (ventricular cardiomyocyte) cells were grown to confluence in 100 mm culture dishes at 37° C., 10% CO2 in DMEM with 10% fetal calf serum. Cells were then washed twice with PBS and incubated with vehicle control, compound D (10 and 25 μM), or compound C (5, 10, and 20 μM) for 16 hours. Plates were placed on ice, culture supernatant was removed, and lysis buffer-1 (LB-1: 10 mM Tris pH 7.4, 1 mM EDTA, 150 mM sodium chloride, 0.5% IGEPAL) was added. Cell lysates were harvested by scraping, incubated for 15 minutes on ice, and then centrifuged at 3000×g for 5 minutes at 4° C. The supernatant, which represents the cytosolic fraction, was collected and cytosolic proteins were separated under reducing conditions using SDS-polyacrylamide gel electrophoresis (SDS-PAGE) with equal amounts of protein loaded per lane.
SDS-PAGE was conducted at 150 V for 2 hours, after which the proteins were transferred to a PVDF membrane at 400 mA for 1.5 hours at 4° C. The membrane was incubated in blocking buffer for 2 hours or overnight and washed once with T-TBS prior to addition of anti-GluT-1 antibody (Alpha Diagnostics) diluted to working concentration in blocking buffer. […]

[4] = Intra-Peritoneal Glucose Tolerance Test in diet-induced Type 2 diabetes model; type: in vivo, male C57BL/6J mice; conditions: 75 mg/kg/day oral gavage, 14 days
Protocol: C57B1/6J mice fed a high-fat diet develop severe obesity, hyperglycemia, and hyperinsulinemia, and are a model of diet-induced obesity, Type 2 diabetes, and impaired glucose tolerance. Forty male C57BL/6J mice obtained from The Jackson Laboratory (Bar Harbor Me.) were divided into the following experimental groups: Group 1: vehicle control animals fed standard mouse chow (n=10); Group 2: animals fed standard mouse chow and administered 75 mg/kg/day compound E by oral gavage (n=10); Group 3: vehicle control animals fed high-fat mouse chow (45% fat from Research Diets) (n=10); Group 4: animals fed high-fat mouse chow and administered 75 mg/kg/day compound E by oral gavage (n=10). The feeding regimen was continued for 14 days with daily measurement of body weight and food consumption. Animals were then fasted for 4 hours prior to an Intra-Peritoneal Glucose Tolerance Test (IPGTT) using a glucose load of 2 g glucose/kg body weight. Blood samples were taken for determination of blood glucose levels at 0, 15, 30, 60, and 90 minutes following glucose administration.

HIF-1α = HIF-1α stabilization in cells, TRANSAM HIF-1 ELISA of nuclear fractions; type: cell-based, Human; conditions: epithelial cells (293A) and hepatocellular carcinoma (Hep3B); FIG. 12B
Protocol: Stabilization of HIFα using compounds and methods of the present invention was examined as follows. Human cells derived from adenovirus-transformed fetal kidney epithelium (293A), cervical epithelial adenocarcinoma (HeLa), hepatocellular carcinoma (Hep3B), squamous carcinoma (SSC-25), and lung fibroblast (HLF) (see, e.g., American Type Culture Collection, Manassas Va.; and Qbiogene, Carlsbad Calif.) were separately seeded into 100 mm culture dishes and grown at 37° C., 20% O2, 10% CO2 in media as follows: HeLa cells in Dulbecco's Modification of Eagle's Medium (DMEM), 2% fetal bovine serum (FBS); HLF cells in DMEM, 10%FBS; 293A cells in DMEM, 5%FBS; and Hep3B cells in Minimal Essential Medium (MEM), Earle's BSS (Mediatech Inc., Herndon Va.), 2 mM L-glutamine, 0.1 mM non-essential amino acids, 1 mM sodium pyruvate, 10% FBS. When cell layers reached confluence, the media was replaced with OPTI-MEM media (Invitrogen Life Technologies, Carlsbad Calif.) and cell layers were incubated for approximately 24 hours in 20% O2, 10% CO2 at 37° C. Compound of the invention (one of compounds B, F, G, and H) or DMSO (0.5 to 1%) was then added to existing medium, and incubation was continued overnight.
Alternatively, nuclear fractions were prepared using a Nuclear Extract kit (Active Motif, Carlsbad Calif.) and were analyzed for HIF-1α using a TRANSAM HIF-1 ELISA kit (Active Motif) according to the manufacturer's instructions.

Structure (SMILES) | abdominal fat pad weight on high-fat diet [2] | organ weights of kidney, liver, and heart between experimental groups [2] | body weight gain on high-fat diet vs untreated high-fat diet [2] | HIFα stabilization and accumulation (ELISA) compared to vehicle-treated control cells (HIF-1α) | other results
O=C(O)CNC(=O)c1nc2cc(Cl)ccc2cc1O [compound A, [(7-Chloro-3-hydroxy-quinoline-2-carbonyl)-amino]-acetic acid] | essentially the same fat pad weight as animals fed a normal diet | not different | significantly less weight gain | – | HbA1c levels at week 8 vs non-treated [1]: significantly lower; HbA1c levels at week 8 ([1]; 8 weeks, control rose from about 7.5% to about 10%, FIG. 6): about 7.5%; HbA1c levels over time ([1]; weeks 0 to 8): did not increase over time; triglyceride level vs controls [3]: significantly lower than controls; triglyceride level ([3]; fasted overnight, control approximately 120 mg/dL, FIG. 11): approximately 85 mg/dL
O=C(O)CNC(=O)c1ncc2cc(Oc3ccccc3)ccc2c1O [compound C, [(4-Hydroxy-7-phenoxy-isoquinoline-3-carbonyl)-amino]-acetic acid] | – | – | – | – | protein levels of GluT-1 (GluT-1): increased
COc1ccc2c(O)c(C(=O)NCC(=O)O)nc(Cl)c2c1 [compound E, [(1-Chloro-4-hydroxy-7-methoxy-isoquinoline-3-carbonyl)-amino]-acetic acid] | essentially the same fat pad weight as animals fed a normal diet | not different | significantly less weight gain | – | glucose clearance rate in IPGTT, treated high-fat diet mice (RxHF) vs mice on standard chow ([4]; 2 g glucose/kg, FIG. 5A): substantially the same; glucose AUC in IPGTT, treated mice (RxChow, RxHF) vs standard chow without compound (VeChow) ([4]; FIG. 5B): no statistical difference; glucose AUC in IPGTT, high-fat chow without compound (VeHF) vs high-fat chow treated (RxHF) ([4]; t-test, p<0.05, FIG. 5B): statistically significant difference
CC(C)Oc1ccc2nc(C(=O)NCC(=O)O)c(O)cc2c1 [compound F, [(3-Hydroxy-6-isopropoxy-quinoline-2-carbonyl)-amino]-acetic acid] | – | – | – | stabilization and accumulation of HIFα | –
O=C(O)CNC(=O)c1ncccc1O [compound G, [(3-Hydroxy-pyridine-2-carbonyl)-amino]-acetic acid] | – | – | – | stabilization and accumulation of HIFα | –
COC(=O)CNC(=O)c1nc(Cl)c2cc(OCc3ccccc3)ccc2c1O [compound H, [(7-Benzyloxy-1-chloro-4-hydroxy-isoquinoline-3-carbonyl)-amino]-acetic acid methyl ester] | – | – | – | stabilization and accumulation of HIFα | –
